Molecular target: T1, W206F ELIC (Dickeya chrysanthemi, UniProt P0C7B7, W205F)
T1 construct: host or cells: OverExpress C43 (DE3) E. coli
Assay: Tryptophan fluorescence emission spectrum with and without agonist
Assay type: biochemical, Erwinia chrysanthemi
Conditions: W206F 30 mM Cys
Description: To measure the tryptophan (Trp) fluorescence emission of ELIC, WT or W206F ELIC was diluted to 3 ml (0.02 mg/ml) and an emission spectrum was collected in a quartz fluorescence cell using a Fluoromax Plus Spectrofluorometer (Horiba Scientific). […] Trp fluorescence measurements with rapid mixing of agonist was carried out using the SX20 stopped-flow spectrofluorometer, outfitted with a 295 nm LED excitation source. Purified ELIC was diluted to 0.1 mg/ml in Trp Stopped-flow Buffer A (10 mM Tris pH 7.5, 100 mM NaCl, 0.05% DDM). A single mixing experiment was performed by mixing ELIC with equal volumes of Buffer A + propylamine. Propylamine was prepared at varying concentrations at 2x the final concentration. The instrument dead time was ~1 ms, enabling capture of most of the time course of change in Trp fluorescence. The time course of decrease in Trp fluorescence after rapid mixing with propylamine was fit to a single exponential to obtain a time constant for the rate of decrease and a measure of the extent of decrease. All replicates were taken from distinct samples.

T1 sequence (P0C7B7 whole entry W205F): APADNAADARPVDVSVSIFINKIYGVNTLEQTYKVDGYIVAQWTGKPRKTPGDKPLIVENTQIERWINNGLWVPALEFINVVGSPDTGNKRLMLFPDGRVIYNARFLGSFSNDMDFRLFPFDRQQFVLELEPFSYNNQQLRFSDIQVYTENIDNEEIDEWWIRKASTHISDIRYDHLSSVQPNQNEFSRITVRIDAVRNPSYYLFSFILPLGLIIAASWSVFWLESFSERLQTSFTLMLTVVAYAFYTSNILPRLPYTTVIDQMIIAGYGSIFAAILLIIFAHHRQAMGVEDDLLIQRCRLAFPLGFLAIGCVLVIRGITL

NCCS [cysteamine]
Tryptophan fluorescence emission intensity (wavelength 320): 771490
Tryptophan fluorescence emission intensity (wavelength 321): 795430
Tryptophan fluorescence emission intensity (wavelength 322): 813680
Tryptophan fluorescence emission intensity (wavelength 323): 843300
Tryptophan fluorescence emission intensity (wavelength 324): 855410
Tryptophan fluorescence emission intensity (wavelength 325): 890410
Tryptophan fluorescence emission intensity (wavelength 327): 921570
Tryptophan fluorescence emission intensity (wavelength 328): 945690
Tryptophan fluorescence emission intensity (wavelength 329): 972730
Tryptophan fluorescence emission intensity (wavelength 330): 989960
Tryptophan fluorescence emission intensity (wavelength 331): 1002600
Tryptophan fluorescence emission intensity (wavelength 332): 1020470
Tryptophan fluorescence emission intensity (wavelength 333): 1032760
Tryptophan fluorescence emission intensity (wavelength 334): 1043250
Tryptophan fluorescence emission intensity (wavelength 335): 1051410
Tryptophan fluorescence emission intensity (wavelength 336): 1059950
Tryptophan fluorescence emission intensity (wavelength 337): 1062210
Tryptophan fluorescence emission intensity (wavelength 338): 1071660
Tryptophan fluorescence emission intensity (wavelength 339): 1076280
Tryptophan fluorescence emission intensity (wavelength 340): 1083710
Tryptophan fluorescence emission intensity (wavelength 341): 1085920
Tryptophan fluorescence emission intensity (wavelength 342): 1080500
Tryptophan fluorescence emission intensity (wavelength 343): 1081010
Tryptophan fluorescence emission intensity (wavelength 344): 1074670
Tryptophan fluorescence emission intensity (wavelength 345): 1071140
Tryptophan fluorescence emission intensity (wavelength 346): 1066530
Tryptophan fluorescence emission intensity (wavelength 347): 1060720
Tryptophan fluorescence emission intensity (wavelength 348): 1058590
Tryptophan fluorescence emission intensity (wavelength 349): 1045760
Tryptophan fluorescence emission intensity (wavelength 350): 1042330
Tryptophan fluorescence emission intensity (wavelength 351): 1034700
Tryptophan fluorescence emission intensity (wavelength 352): 1019030
Tryptophan fluorescence emission intensity (wavelength 353): 1010620
Tryptophan fluorescence emission intensity (wavelength 354): 993340
Tryptophan fluorescence emission intensity (wavelength 355): 980850
Tryptophan fluorescence emission intensity (wavelength 356): 973320
Tryptophan fluorescence emission intensity (wavelength 357): 961650
Tryptophan fluorescence emission intensity (wavelength 358): 938960
Tryptophan fluorescence emission intensity (wavelength 359): 924340
Tryptophan fluorescence emission intensity (wavelength 360): 898600
Tryptophan fluorescence emission intensity (wavelength 361): 886010
Tryptophan fluorescence emission intensity (wavelength 362): 867380
Tryptophan fluorescence emission intensity (wavelength 363): 844340
Tryptophan fluorescence emission intensity (wavelength 364): 830030
Tryptophan fluorescence emission intensity (wavelength 365): 813040
Tryptophan fluorescence emission intensity (wavelength 366): 786750
Tryptophan fluorescence emission intensity (wavelength 367): 769070
Tryptophan fluorescence emission intensity (wavelength 368): 749540
Tryptophan fluorescence emission intensity (wavelength 369): 729430
Tryptophan fluorescence emission intensity (wavelength 370): 711180
Tryptophan fluorescence emission intensity (wavelength 371): 692310
Tryptophan fluorescence emission intensity (wavelength 372): 672500
Tryptophan fluorescence emission intensity (wavelength 373): 652280
Tryptophan fluorescence emission intensity (wavelength 374): 629710
Tryptophan fluorescence emission intensity (wavelength 375): 618580
Tryptophan fluorescence emission intensity (wavelength 376): 599350
Tryptophan fluorescence emission intensity (wavelength 377): 580660
Tryptophan fluorescence emission intensity (wavelength 378): 563670
Tryptophan fluorescence emission intensity (wavelength 379): 543190
Tryptophan fluorescence emission intensity (wavelength 380): 522740
Tryptophan fluorescence emission intensity (wavelength 381): 502820
Tryptophan fluorescence emission intensity (wavelength 382): 487000
Tryptophan fluorescence emission intensity (wavelength 383): 475140
Tryptophan fluorescence emission intensity (wavelength 384): 456600
Tryptophan fluorescence emission intensity (wavelength 385): 440790
Tryptophan fluorescence emission intensity (wavelength 386): 423940
Tryptophan fluorescence emission intensity (wavelength 387): 405220
Tryptophan fluorescence emission intensity (wavelength 388): 397190
Tryptophan fluorescence emission intensity (wavelength 389): 381080
Tryptophan fluorescence emission intensity (wavelength 390): 363380
Tryptophan fluorescence emission intensity (wavelength 391): 352540
Tryptophan fluorescence emission intensity (wavelength 392): 336000
Tryptophan fluorescence emission intensity (wavelength 393): 325360
Tryptophan fluorescence emission intensity (wavelength 394): 311620
Tryptophan fluorescence emission intensity (wavelength 395): 300840
Tryptophan fluorescence emission intensity (wavelength 396): 285190
Tryptophan fluorescence emission intensity (wavelength 397): 272180
Tryptophan fluorescence emission intensity (wavelength 398): 260830
Tryptophan fluorescence emission intensity (wavelength 399): 250140
Tryptophan fluorescence emission intensity (wavelength 400): 241040
Tryptophan fluorescence emission intensity (wavelength 401): 226290
Tryptophan fluorescence emission intensity (wavelength 402): 221660
Tryptophan fluorescence emission intensity (wavelength 403): 211970
Tryptophan fluorescence emission intensity (wavelength 404): 203540
Tryptophan fluorescence emission intensity (wavelength 405): 194410
Tryptophan fluorescence emission intensity (wavelength 406): 184680
Tryptophan fluorescence emission intensity (wavelength 407): 177100
Tryptophan fluorescence emission intensity (wavelength 408): 169410
Tryptophan fluorescence emission intensity (wavelength 409): 164650
Tryptophan fluorescence emission intensity (wavelength 410): 155310
Tryptophan fluorescence emission intensity (wavelength 411): 149680
Tryptophan fluorescence emission intensity (wavelength 412): 144200
Tryptophan fluorescence emission intensity (wavelength 413): 137560
Tryptophan fluorescence emission intensity (wavelength 414): 131490
Tryptophan fluorescence emission intensity (wavelength 415): 127250
Tryptophan fluorescence emission intensity (wavelength 416): 120610
Tryptophan fluorescence emission intensity (wavelength 417): 116040
Tryptophan fluorescence emission intensity (wavelength 418): 113630
Tryptophan fluorescence emission intensity (wavelength 419): 109000
Tryptophan fluorescence emission intensity (wavelength 420): 104760
